According to ChEMBL document CHEMBL1128656, “5,6,7,8-Tetrahydroquinolones as antagonists at the glycine site of the NMDA receptor” (Bioorg Med Chem Lett, 1995):
Each block holds one compound with its values, some of them ahead of it. Calls of active or inactive are those of the source. The rule behind the calls is not given here.

What was measured:
[1] = species: Mus musculus; experiment: Effective dose required to protect against audiogenic seizure in DBA/2 mice; format: functional
[2] = biological target: Glutamate receptor ionotropic, NMDA 1 (Rattus norvegicus, UniProt P35439); experiment: Compound was evaluated for its ability to displace [3H]-L-689,560 from rat cortical membrane
[3] = tested on: Mus musculus; experiment: Effective dose required to protect against audiogenic seizure in DBA/2 mice at 20 mg/kg; number protected / number tested is 8/8; format: functional, organism-based; design: dose 20 mg/kg
[4] = tested on: Mus musculus; experiment: Effective dose required to protect against audiogenic seizure in DBA/2 mice at 10 mg/kg; number protected / number tested is 1/8; format: functional, organism-based; design: dose 10 mg/kg
[5] = biological target: Glutamate receptor ionotropic, NMDA 1 (Rattus norvegicus) (UniProt P35439); experiment: Ability of compound to antagonize NMDA induced responses in rat cortical slice; format: functional
[6] = tested on: Mus musculus; experiment: Effective dose required to protect against audiogenic seizure in DBA/2 mice at 10 mg/kg; number protected / number tested is 4/8; format: functional, organism-based; design: dose 10 mg/kg

IC50 [2]: 3.5 µM
Compound: CC1CCc2c([nH]c(=O)c(-c3ccccc3)c2O)C1 (stereo not drawn)

IC50 [2]: 0.057 µM
Compound: CC1CCc2c([nH]c(=O)c(-c3cccc(Oc4ccccc4)c3)c2O)C1 (stereo not drawn)

IC50 [2]: ~100 µM
Compound: CCCc1nc(O)c(-c2ccccc2)c(O)c1C

IC50 [2]: 0.02 µM
Compound: Cc1ccc2c(O)c(-c3cccc(Oc4ccccc4)c3)c(=O)[nH]c2c1

Kb [5]: 0.35 µM
Compound: CC1CCc2c(nc(O)c(-c3cccc(Oc4ccccc4)c3)c2O)C1 (stereo not drawn)
ED50 [4]: inactive

Further lines, the compound ahead of its results:

Compound: O=c1[nH]c2cc(Cl)ccc2c(O)c1-c1cccc(Oc2ccccc2)c1
ED50 [1]: 0.88 mg/kg

Compound: CC1CCc2c(nc(O)c(-c3ccccc3)c2O)C1 (stereo not drawn)
ED50 [3]: Active | ED50 [4]: inactive | Kb [5]: 3.7 µM

Compound: O=c1[nH]c2cc(Cl)ccc2c(O)c1-c1ccccc1
ED50 [1]: 4.5 mg/kg

Compound: Cc1[nH]c(=O)c(-c2ccccc2)c(O)c1C
IC50 [2]: > 100 µM

Compound: Cc1ccc2c(O)c(-c3cccc(Oc4ccccc4)c3)c(O)nc2c1
ED50 [6]: Weak activity
